# What was measured:
# Test in all cases: In vitro assay of antibacterial activity (agar dilution MIC)
# Format in all cases: cell-based
# [1] = test system: STAPHYLOCOCCUS AUREUS CMX 553; conditions: BHI agar, 35-37 °C for 20 to 24 hours, unit assumed
# Method: (§1) Representative compounds of the present invention were assayed in vitro for antibacterial activity as follows: Twelve petri dishes containing successive aqueous dilutions of the test compound mixed with 10 mL of sterilized Brain Heart Infusion (BHI) agar (Difco 0418-01-5) were prepared. Each plate was inoculated with 1:100 (or 1:10 for slow-growing strains, such as Micrococcus and Streptococcus) dilutions of up to 32 different microorganisms, using a Steers replicator block. The inoculated plates were incubated at 35-37 °C for 20 to 24 hours. In addition, a control plate, using BHI agar containing no test compound, was prepared and incubated at the beginning and end of each test.
# (§2) An additional plate containing a compound having known susceptibility patterns for the organisms being tested and belonging to the same antibiotic class as the test compound was also prepared and incubated as a further control, as well as to provide test-to-test comparability. Erythromycin A was used for this purpose.
# (§3) After incubation, each plate was visually inspected. The minimum inhibitory concentration (MIC) was defined as the lowest concentration of drug yielding no growth, a slight haze, or sparsely isolated colonies on the inoculum spot as compared to the growth control.
# M[…] ATCC 9341 = conditions: MICROCOCCUS LUTEUS ATCC 9341; BHI agar, 35-37 °C for 20 to 24 hours; unit assumed
# Method: as §1, §2, §3
# EN[…] ATCC 8043 = conditions: ENTEROCOCCUS FAECIUM ATCC 8043; BHI agar, 35-37 °C for 20 to 24 hours; unit assumed
# Method: as §1, §2, §3
# [2] = test system: STAPHYLOCOCCUS AUREUS 1775; conditions: BHI agar, 35-37 °C for 20 to 24 hours, unit assumed
# Method: as §1, §2, §3
# [3] = test system: STAPHYLOCOCCUS AUREUS CMX 642A; conditions: BHI agar, 35-37 °C for 20 to 24 hours, unit assumed
# Method: as §1, §2, §3
# STR[…] 508 = conditions: STREPTOCOCCUS AGALACTIAE CMX 508; BHI agar, 35-37 °C for 20 to 24 hours; unit assumed
# Method: as §1, §2, §3
# ESCHERICHIA COLI JUHL = conditions: ESCHERICHIA COLI JUHL; BHI agar, 35-37 °C for 20 to 24 hours; unit assumed
# Method: as §1, §2, §3
# [4] = test system: STREPTOCOCCUS PYOGENES EES61; conditions: STREPTOCOCCUS PYOGENES EES61; BHI agar, 35-37 °C for 20 to 24 hours; unit assumed
# Method: as §1, §2, §3
# M[…] ATCC 4698 = conditions: MICROCOCCUS LUTEUS ATCC 4698; BHI agar, 35-37 °C for 20 to 24 hours; unit assumed
# Method: as §1, §2, §3
# [5] = test system: STAPHYLOCOCCUS AUREUS A5177; conditions: BHI agar, 35-37 °C for 20 to 24 hours, unit assumed
# Method: as §1, §2, §3
# N. ASTEROIDES ATCC 9970 = conditions: BHI agar, 35-37 °C for 20 to 24 hours, unit assumed
# Method: as §1, §2, §3
# [6] = test system: STREPTOCOCCUS BOVIS A-5169; conditions: STREPTOCOCCUS BOVIS A-5169; BHI agar, 35-37 °C for 20 to 24 hours; unit assumed
# Method: as §1, §2, §3
# [7] = test system: STAPHYLOCOCCUS EPIDERMIDIS 3519; conditions: STAPHYLOCOCCUS EPIDERMIDIS 3519; BHI agar, 35-37 °C for 20 to 24 hours; unit assumed
# Method: as §1, §2, §3
# ESCHERICHIA COLI DC-2 = conditions: BHI agar, 35-37 °C for 20 to 24 hours, unit assumed
# Method: as §1, §2, §3
# [8] = test system: STAPHYLOCOCCUS AUREUS NCTC10649M; conditions: BHI agar, 35-37 °C for 20 to 24 hours, unit assumed
# Method: as §1, §2, §3
# [9] = test system: STAPHYLOCOCCUS AUREUS ATCC 6538P; conditions: BHI agar, 35-37 °C for 20 to 24 hours, unit assumed
# Method: as §1, §2, §3
# [10] = test system: STREPTOCOCCUS PYOGENES 930; conditions: STREPTOCOCCUS PYOGENES 930; BHI agar, 35-37 °C for 20 to 24 hours; unit assumed
# Method: as §1, §2, §3
# [11] = test system: STAPHYLOCOCCUS AUREUS A-5278; conditions: BHI agar, 35-37 °C for 20 to 24 hours, unit assumed
# Method: as §1, §2, §3
# [12] = test system: STREPTOCOCCUS PYOGENES PIU 2548; conditions: STREPTOCOCCUS PYOGENES PIU 2548; BHI agar, 35-37 °C for 20 to 24 hours; unit assumed
# Method: as §1, §2, §3
# ESCHERICHIA COLI SS = conditions: ESCHERICHIA COLI SS; BHI agar, 35-37 °C for 20 to 24 hours; unit assumed
# Method: as §1, §2, §3
# CANDIDA ALBICANS CCH 442 = conditions: BHI agar, 35-37 °C for 20 to 24 hours, unit assumed
# Method: as §1, §2, §3
# [13] = test system: MYCOBACTERIUM SMEGMATIS ATCC 114; conditions: MYCOBACTERIUM SMEGMATIS ATCC 114; BHI agar, 35-37 °C for 20 to 24 hours; unit assumed
# Method: as §1, §2, §3
SMILES,Antibacterial Activity (MIC's) [1] [µg/mL],Antibacterial Activity (MIC's) (M[…] ATCC 9341) [µg/mL],Antibacterial Activity (MIC's) (EN[…] ATCC 8043) [µg/mL],Antibacterial Activity (MIC's) [2] [µg/mL],Antibacterial Activity (MIC's) [3] [µg/mL],Antibacterial Activity (MIC's) (STR[…] 508) [µg/mL],Antibacterial Activity (MIC's) (ESCHERICHIA COLI JUHL) [µg/mL],Antibacterial Activity (MIC's) [4] [µg/mL],Antibacterial Activity (MIC's) (M[…] ATCC 4698) [µg/mL],Antibacterial Activity (MIC's) [5] [µg/mL],Antibacterial Activity (MIC's) (N. ASTEROIDES ATCC 9970) [µg/mL],Antibacterial Activity (MIC's) [6] [µg/mL],Antibacterial Activity (MIC's) [7] [µg/mL],Antibacterial Activity (MIC's) (ESCHERICHIA COLI DC-2) [µg/mL],Antibacterial Activity (MIC's) [8] [µg/mL],Antibacterial Activity (MIC's) [9] [µg/mL],Antibacterial Activity (MIC's) [10] [µg/mL],Antibacterial Activity (MIC's) [11] [µg/mL],Antibacterial Activity (MIC's) [12] [µg/mL],Antibacterial Activity (MIC's) (ESCHERICHIA COLI SS) [µg/mL],further results
"CC[C@H]1OC(=O)[C@H](C)C(=O)[C@H](C)[C@@H](O[C@@H]2O[C@H](C)C[C@H](N(C)C)[C@H]2O)[C@](C)(OC)C[C@@H](C)C2=Nc3ccccc3N3C(=O)O[C@@]1(C)[C@H]3[C@H]2C [Ex 2, Compound of Formula (I): R^1 is methoxy: R^2 is H, R^3 is absent, the double bond is present, A, B, D and E are H, and Y and Z taken together with the atom to which they are attached form an oxo group]",0.39,0.1,0.2,> 100,0.39,0.1,> 100,0.1,0.78,0.39,0.39,0.1,0.39,> 100,0.39,0.39,> 100,> 100,0.39,1.56,Antibacterial Activity (MIC's) (CANDIDA ALBICANS CCH 442): > 100 µg/mL; Antibacterial Activity (MIC's) [13]: 3.1 µg/mL
"CC[C@H]1OC(=O)[C@H](C)C(=O)[C@H](C)[C@@H](O[C@@H]2O[C@H](C)C[C@H](N(C)C)[C@H]2O)[C@](C)(OC)C[C@@H](C)C2=Nc3cc(OC)ccc3N3C(=O)O[C@@]1(C)[C@H]3[C@H]2C [Ex 5, Compound of Formula (I): R^1 is methoxy; R^2 is H, R^3 is absent, the double bond is present, A, B, and E are H, D is methoxy, and Y and Z taken together with the atom to which they are attached form an oxo group]",0.78,0.1,0.1,> 100,0.78,0.02,> 100,0.02,0.78,0.78,0.2,0.02,0.78,> 100,0.78,0.78,> 100,> 100,0.39,50,Antibacterial Activity (MIC's) (CANDIDA ALBICANS CCH 442): > 100 µg/mL; Antibacterial Activity (MIC's) [13]: 1.56 µg/mL
"CC[C@H]1OC(=O)[C@H](C)C(=O)[C@H](C)[C@@H](O[C@@H]2O[C@H](C)C[C@H](N(C)C)[C@H]2O)[C@](C)(OC)C[C@@H](C)C2=Nc3cccnc3N3C(=O)O[C@@]1(C)[C@H]3[C@H]2C [Ex 7, Compound of Formula (II): R^1 is methoxy; R^2 is H, R^3 is absent, the double bond is present, B, D and E are H, and Y and Z taken together with the atom to which they are attached form an oxo group]",0.39,0.05,0.1,> 100,0.39,0.05,> 100,0.05,0.39,0.39,0.1,0.05,0.39,> 100,0.39,0.39,> 100,> 100,0.39,0.78,Antibacterial Activity (MIC's) (CANDIDA ALBICANS CCH 442): > 100 µg/mL; Antibacterial Activity (MIC's) [13]: 3.1 µg/mL
"C=CCO[C@]1(C)C[C@@H](C)C2=Nc3ccccc3N3C(=O)O[C@](C)([C@@H](CC)OC(=O)[C@H](C)C(=O)[C@H](C)[C@H]1O[C@@H]1O[C@H](C)C[C@H](N(C)C)[C@H]1O)[C@H]3[C@H]2C [Ex 8, Compound of Formula (I): R^1 is allyloxy; R^2 is H, R^3 is absent, the double bond is present, A, B, D and E are H, and Y and Z taken together with the atom to which they are attached form an oxo group]",0.78,0.78,0.78,> 100,0.78,0.39,> 100,0.39,1.56,0.78,3.1,0.1,1.56,> 100,0.78,0.78,> 100,> 100,0.78,12.5,Antibacterial Activity (MIC's) (CANDIDA ALBICANS CCH 442): > 100 µg/mL; Antibacterial Activity (MIC's) [13]: 6.2 µg/mL
